In series [1] the test system is female DBF mice. The series can be described thus: Mouse hypercalcemia assay. It is filed as in vivo. The conditions noted are these: orally via gavage for 6 days; serum ionized calcium 6 hours after last dosing. From the text: 4. The Mouse Hypercalcemia Assay
(4) Materials and Method for The Mouse Hypercalcemia Assay: […]

Series [2] has as its system KERtr cells (Human skin keratinocyte). Kind of series: Keratinocyte proliferation assay. It is filed as cell-based. The note with it: BrdU incorporation, read-out: Kera. Prolif. IC50. (Uptake of a labelled nucleoside into DNA is a usual measure of proliferation.)
The test system of series [3] is IL-10. Kind of series: human IL-10 induction assay in PBMCs. The note with it: TPA/PHA treated human PBMCs, IL-10 immunoassay of supernatant. It is filed as cell-based. From the text:
The evaluation of the novel compounds of the invention for psoriasis is done using the Keratinocyte Proliferation Assay in combination with other assays that measure inhibition of IL-2 production and stimulation of IL-10 production in peripheral blood mononuclear cells (PBMCs).
6. The IL-10 Induction Assay
This is an in vitro efficacy assay for psoriasis, abscess and adhesion. Psoriasis involves both keratinocytes and immune cells. IL-10 is a unique cytokine because it is anti-inflammatory and immunosuppressive. This assay tells us whether a VDRM is able to function as an agonist in PBMCs (primary blood mononuclear cells) or not. A lower EC50 value is desirable in this assay since a compound with a lower EC50 value will be a better agonist in PBMCs.
(6) Materials and Method for human IL-10 Induction Assay:
Isolation of peripheral blood mononuclear cells (PBMCs):
• A. Collect 50 ml of human blood and dilute with media, RPMI-1640. • B. Prepare sterile tubes with ficol. • C. Add diluted blood to tubes. • D. Centrifuge. • E. Discard the top layer and collect the cells from middle layer. • F. Divide all cells into four tubes and add media. • G. Centrifuge. • H. Aspirate off media and resuspend. • I. Collect all cells • J. Centrifuge. at 1200 rpm for 10 minutes. • K. Resuspend in RPMI-1640 with 2% FBS and count cells Stimulation of PBMC: • L. Prepare TPA in DMSO. • M. Dissolve PHA in water. • N. Plate TPA/PHA treated PBMCs in well plates. • O. Incubate. Treatment: • P. Prepare all compound dilutions in plain RPMI-1640 media. • Q. Add diluted compound. • R. Incubate. Sample Collection and assay: • S. Remove all the cells by centrifugation and assay the supernatant for IL-10 by immunoassay. • 1) T. Perform IL-10 assay using anti-human IL-10 antibody coated beads, as described by the manufacturer (Linco Research Inc., St. Charles, Mo.).

In series [4] the test system is rat osteocalcin promoter. Kind of series: OCN (osteocalcin) promoter assay in RG-15 (ROS 17/2.8) cells. It is filed as cell-based. The note with it: 48 hr treatment, luciferase. An outline of the steps: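 Rat osteoblast-like RG-15 (ROS 17/2.8) cells stably carrying a luciferase reporter driven by the osteocalcin promoter, treated with compounds in DMSO (0.01% v/v final) in medium with 2% FBS. After 48 hr at 37 °C, cells were lysed and luciferase activity measured.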

The values below come from patent US7772425B2, “Vitamin D receptor modulators” (Eli Lilly and Company, priority 2002, dated 2010).

Molecules are shown by their SMILES. “And” between values parts separate entries of the source, which are not always exact repeats. Equal entries are not always repeated. Where two headings read alike, the source gives them in different places.

As usually defined, the IC50 is the concentration that inhibits the measured activity by half. Broadly, the EC50 is the concentration giving half of the maximal effect.

As to `CCC(CC)(c1ccc(CC2SC(=O)NC2=O)c(C)c1)c1ccc(OCC(O)C(C)(C)C)c(C)c1` (single isomer, unassigned) [Ex. 50, 5-(4-{1-ethyl-1-[4-(2-hydroxy-3,3-dimethyl-butoxy)-3-methyl-phenyl]-propyl}-2-methyl-benzyl)-thiazolidine-2,4-dione], the “Mouse Hypercal” value in series [1] was 300 µg/kg/day. The IC50 was determined as 3 nM in series [2] (72 hr) and 4 nM in series [3]. Moreover, the EC50 in series [4] worked out at 0.2 nM.

With `CCC(CC)(c1ccc(CC2SC(=O)NC2=O)c(C)c1)c1ccc(OCC(O)C(C)(C)C)c(C)c1` (single isomer, unassigned) [Ex. 51, 5-(4-{1-ethyl-1-[4-(2-hydroxy-3,3-dimethyl-butoxy)-3-methyl-phenyl]-propyl}-2-methyl-benzyl)-thiazolidine-2,4-dione], the “Mouse Hypercal” value in series [1] was 300 µg/kg/day. Further, the results for the IC50 in series [2] (72 hr) and in series [3] were 26 nM and 19 nM, respectively. The EC50 in series [4] came out at 1.4 nM.

With `CCC(CC)(c1ccc(OC(C)C(O)C(C)(C)C)c(C)c1)c1ccc(C(=O)N(C)CC(=O)O)c(C)c1` (single isomer, unassigned) [Ex. 52, [(4-{1-Ethyl-1-[4-(2-hydroxy-1,3,3-trimethyl-butoxy)-3-methyl-phenyl]-propyl}-2-methyl-benzoyl)-methyl-amino]-acetic acid], the “Mouse Hypercal” value in series [1] was above 3000 µg/kg/day. For the same compound, the IC50 in series [2] (72 hr) came out at 52 nM; in series [3] (Homo sapiens, PBMC), 154 nM. For the same compound, in series [4], the EC50 was determined as 4 nM.

For `CCC(CC)(c1ccc(CCC(=O)O)c(C)c1)c1ccc(OCC(=O)C(C)(C)C)c(C)c1` [Ex 6, 3′-[4-(2-oxo-3,3-dimethylbutoxy)-3-methylphenyl]-3′-[4-(2-carboxylethyl)-3-methylphenyl]pentane], the “Mouse Hypercal” value in series [1] is 10 µg/kg/day. For the same compound, the IC50 amounted to 2 nM in series [2] (Homo sapiens, Keratinocyte, 72 h) and 55 nM in series [3] (Homo sapiens, PBMC). Moreover, in series [4] (Rattus norvegicus, 48 h), the EC50 was found to be 0.3 nM.

`CCC(CC)(c1ccc(OC(C)C(O)C(C)(C)C)c(C)c1)c1ccc(C(=O)N[C@H](C)C(=O)O)c(C)c1` (some centres unmarked) [Ex. 46, (D)-2-(4-{1-ethyl-1-[4-(2-hydroxy-1,3,3-trimethyl-butoxy)-3-methyl-phenyl]-propyl}-2-methyl-benzoylamino)-propionic acid]: the “Mouse Hypercal” value in series [1] is 3000 µg/kg/day. Besides, the IC50 worked out at 21 nM in series [2] (72 hr) and 33 nM in series [3] (Homo sapiens, PBMC). The EC50 in series [4] was 2 nM and 3 nM.
